Source: patent US20240132477A1, “Benzimidazole Derivatives and Their Use As Inhibitors of ITK For The Treatment of Skin Disease” (PFIZER INC., priority 2020, published 2024)

Columns and labels:
[1] = biological target: IL-2-Inducible T-Cell Kinase (ITK) (Homo sapiens (Human), UniProt Q08881); experiment: ITK enzyme assay; assay type: biochemical; conditions: geometric mean of count n; ITK FL enzyme, BTK peptide substrate
Experimental: IL-2-Inducible T-Cell Kinase (ITK) Activity, IC50 (uM)
ITK activity was determined by measuring the effect of a test compound in an ITK enzyme assay.
1.0 M HEPES Buffer pH 7.5 solution was prepared as follows: 238.3 g HEPES free acid (Sigma) and 800 mL of water were combined, and the mixture was stirred until complete dissolution. The pH was adjusted to 7.5 via titration with 5N NaOH and the volume adjusted to 1000 mL. The solution was filtered and sterilized.
ITK assay buffer was prepared as follows: 50 mL of HPLC-grade water was treated with 2 mL of 1.0 M HEPES Buffer, 500 μL of 2% Gelatin (Sigma), 1.0 mL of aqueous MgCl2 solution (1.0 M), and 1.0 mL of aqueous glutathione solution (0.5 M), and the solution was mixed. The solution was brought to 99 mL in a graduated cylinder by addition of water and sterilized through a 0.2 μm filter. 0.1 mL of Brij-35™ Surfact-AmpS™ Detergent Solution (10% w/v aqueous solution, ThermoFisher) and 1.0 mL of ATP (Teknova, 100 mM) were added and the solution was mixed.
Preparation of 1.33×ITK enzyme solution was as follows: 49.99 mL of ITK assay buffer was treated with 4.1 μL of ITK enzyme (ITK FL (N-Flag and C-His tagged, ˜72 kDa) Lake Pharma, 0.25 mg/ml in a buffer containing 25 mM Tris pH 7.8, 150 mM NaCl, 10% glycerol and 2 mM TCEP) and the mixture was gently agitated. The resulting solution was stored on ice. 30 Minutes prior to use, the enzyme solution was removed from ice and equilibrated to RT by incubation in a RT water bath.
Preparation of 4×ITK substrate solution was as follows: 50 mL of ITK assay buffer was treated with 100 μL of BTK peptide (China Peptide Company, 2 mM stock solution in DMSO). The tube was capped, mixed by gently inverting the tube, and then stored on ice. 30 Minutes prior to use, the substrate solution was removed from ice and equilibrated to RT by incubation in a RT water bath.
At the time of assay, 7.5 μL of the 1.33×ITK enzyme solution was added to plate wells containing 0.1 μL of varying concentrations of test compound in DMSO. The plate was incubated 30 min at RT. The plate wells were each treated with 2.5 uL of the 4×ITK substrate solution and the plate was sealed (TopSeal™, Perkin Elmer). The plate was spun at 1000 rpm for 30 sec and then incubated for 60 min at RT. The seal was removed, and each well was treated with 10 μL of Stop/Detect Buffer (20 mM HEPES pH 7.5, 0.01% gelatin, 1 nM LANCE PT66 (Perkin Elmer), 16.5 μg/ml Surelight APC (Perkin Elmer), 10 mM EDTA, 250 mM NaCl). The plate was again covered and was spun at 1000 rpm for 30 seconds. The plate was allowed to incubate overnight at RT and in a closed carrier to reduce dehydration. The seal was removed, and the fluorescence was read with a plate reader with […]. The concentrations and resulting effect values for the tested compound were plotted and the concentration of compound required for 50% effect (IC50) was determined with the four-parameter logistic dose response equation.

[2] = system: IL-2 in supernatants from activated CD4+ human T-cells; experiment: IL-2 inhibition in supernatants from activated CD4+ human T-cells (cisbio HTRF); assay type: cell-based; conditions: T-cell; geometric mean of count n; activated CD4+ human T-cells, 20 to 24 hrs; read-out: IL-2 IC50
Experimental: IL-2-Inhibition Activity, IC50 (uM)
IL-2 inhibition activity in supernatants from activated CD4+ human T-cells was determined by measuring the effect of a test compound on the activity using the cisbio HTRF™ technology.
Human CD4+ T cells were activated with CD3/CD28 for 3 days and expanded for an additional 4-6 days (7 to 9 days total). On day 0, frozen CD4+ T cells were thawed, treated with CD3/CD28 Dynabeads, and incubated at 37° C./5% CO2. On day 3, the beads were removed, and the cells were diluted to 5×10^5 cells/cm^2, placed in G-Rex10 flask, and incubated at 37° C./5% CO2. On day 7 to day 9 the cells were removed from the G-Rex flasks, counted and diluted back to 1×10^6 cells/ml in standard tissue culture flask.
The expanded CD4+ T-cells were centrifuged at 300×g for 10 minutes and resuspended to 0.5 million cells per ml (30,000 cells/well). 60 μl of CD4+ T cells were added per well to a 384 well plate containing 0.1 μL of varying concentrations of test compound in DMSO. The plates were incubated for 15 min at 37° C./5% CO2. 20 μl of diluted ImmunoCult™ (STEMCELL Technologies, 1:12.5 in T cell assay media) were added to all wells of the plate (1:50 final assay concentration). The plates were incubated for an additional 20 to 24 hrs at 37° C./5% CO2. The plates were centrifuged at 300×g for 10 minutes. 16 μL of supernatant was removed and combined with 4 μl of IL-2 HTRF Abs. (cisbio kit). Plates were incubated for 3 hours at RT and read with an EnVision plate reader at 665 nm and 615 nm wavelengths. The concentrations and resulting effect values for the tested compound were plotted and the concentration of compound required for 50% effect (IC50) was determined with the four-parameter logistic dose response equation.

Sequence of IL-2-Inducible T-Cell Kinase (ITK) (Q08881 whole entry): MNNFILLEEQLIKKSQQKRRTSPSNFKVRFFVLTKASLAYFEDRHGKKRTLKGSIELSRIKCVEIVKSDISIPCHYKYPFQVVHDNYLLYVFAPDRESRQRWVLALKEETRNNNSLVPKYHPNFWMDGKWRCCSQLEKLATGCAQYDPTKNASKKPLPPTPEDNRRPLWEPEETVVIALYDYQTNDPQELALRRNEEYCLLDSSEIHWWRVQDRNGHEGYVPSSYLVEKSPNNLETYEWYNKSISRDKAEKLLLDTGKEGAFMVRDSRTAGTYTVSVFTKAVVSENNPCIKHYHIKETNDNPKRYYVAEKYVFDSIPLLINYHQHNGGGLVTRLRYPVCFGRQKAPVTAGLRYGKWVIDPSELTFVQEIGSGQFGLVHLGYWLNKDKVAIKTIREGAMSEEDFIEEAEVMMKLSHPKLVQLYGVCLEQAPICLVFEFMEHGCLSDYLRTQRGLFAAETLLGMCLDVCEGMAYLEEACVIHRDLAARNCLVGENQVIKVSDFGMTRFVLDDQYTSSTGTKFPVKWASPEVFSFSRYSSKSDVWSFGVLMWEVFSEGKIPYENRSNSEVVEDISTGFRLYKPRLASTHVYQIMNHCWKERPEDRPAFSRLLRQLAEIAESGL

| IC50 [1] | IC50 [2] | SMILES |
| --- | --- | --- |
| 37 nM | 259 nM | Cc1cc2[nH]c(-c3n[nH]c4c3C[C@@H]3C[C@]3(C)C4)nc2cc1N(C)C(=O)C1(C)CC1 [Example 24, N,1-Dimethyl-N-(5-methyl-2-((4aS,5aR)-5a-methyl-1,4,4a,5,5a,6-hexahydrocyclopropa[f]indazol-3-yl)-1H-benzo[d]imidazol-6-yl)cyclopropane-1-carboxamide] |
| 72 nM | 572 nM | Cc1cc2[nH]c(-c3n[nH]c4c3C[C@@H]3C[C@]3(C)C4)nc2cc1N(C)C(=O)[C@H](C)N1CCCC1=O [Example 25, (S)-N-Methyl-N-(6-methyl-2-((4aS,5aR)-5a-methyl-1,4,4a,5,5a,6-hexahydrocyclopropa[f]indazol-3-yl)-1H-benzo[d]imidazol-5-yl)-2-(2-oxopyrrolidin-1-yl)propenamide] |
| 6 nM | 47 nM | CCCC(=O)N(C)c1cc2nc(-c3n[nH]c4c3C[C@@H]3C[C@]3(C)C4)[nH]c2cc1C [Example 26, N-Methyl-N-(6-methyl-2-((4aS,5aR)-5a-methyl-1,4,4a,5,5a,6-hexahydrocyclopropa[f]indazol-3-yl)-1H-benzo[d]imidazol-5-yl)butyramide] |
| 77 nM | 489 nM | CC[C@@H](C(=O)N(C)c1cc2nc(-c3n[nH]c4c3C[C@@H]3C[C@]3(C)C4)[nH]c2cc1C)N1CCCC1=O [Example 27, (S)-N-Methyl-N-(6-methyl-2-((4aS,5aR)-5a-methyl-1,4,4a,5,5a,6-hexahydrocyclopropa[f]indazol-3-yl)-1H-benzo[d]imidazol-5-yl)-2-(2-oxopyrrolidin-1-yl)butanamide] |
| 7 nM | 57 nM | Cc1cc2[nH]c(-c3n[nH]c4c3C[C@@H]3C[C@]3(C)C4)nc2cc1N(C)C(=O)C(C)(C)F [Example 28, 2-Fluoro-N,2-dimethyl-N-(6-methyl-2-((4aS,5aR)-5a-methyl-1,4,4a,5,5a,6-hexahydrocyclopropa[f]indazol-3-yl)-1H-benzo[d]imidazol-5-yl)propenamide] |
| 8 nM | 118 nM | Cc1cc2[nH]c(-c3n[nH]c4c3C[C@@H]3C[C@]3(C)C4)nc2cc1N(C)C(=O)C1(F)CC1 [Example 32, 1-Fluoro-N-methyl-N-(6-methyl-2-((4aS,5aR)-5a-methyl-1,4,4a,5,5a,6-hexahydrocyclopropa[f]indazol-3-yl)-1H-benzo[d]imidazol-5-yl)cyclopropane-1-carboxamide] |
| 5 nM | 53 nM | CCC(=O)N(C)c1cc2nc(-c3n[nH]c4c3C[C@@H]3C[C@]3(C)C4)[nH]c2cc1C [Example 33, N-Methyl-N-(6-methyl-2-((4aS,5aR)-5a-methyl-1,4,4a,5,5a,6-hexahydrocyclopropa[f]indazol-3-yl)-1H-benzo[d]imidazol-5-yl)propionamide] |
| 4 nM | 43 nM | Cc1cc2[nH]c(-c3n[nH]c4c3C[C@@H]3C[C@]3(C)C4)nc2cc1N(C)C(=O)CN1CCCCCC1=O [Example 34, N-Methyl-N-(6-methyl-2-((4aS,5aR)-5a-methyl-1,4,4a,5,5a,6-hexahydrocyclopropa[f]indazol-3-yl)-1H-benzo[d]imidazol-5-yl)-2-(2-oxoazepan-1-yl)acetamide] |
| 5 nM | 57 nM | Cc1cc2[nH]c(-c3n[nH]c4c3C[C@@H]3C[C@]3(C)C4)nc2cc1N(C)C(=O)C1CCC1 [Example 36, N-Methyl-N-(6-methyl-2-((4aS,5aR)-5a-methyl-1,4,4a,5,5a,6-hexahydrocyclopropa[f]indazol-3-yl)-1H-benzo[d]imidazol-5-yl)cyclobutanecarboxamide] |
| 61 nM | 506 nM | CCC(C(=O)N(C)c1cc2nc(-c3n[nH]c4c3C[C@@H]3C[C@]3(C)C4)[nH]c2cc1C)N1CCCC1=O (stereo partly drawn) [Example 37, N-Methyl-N-(6-methyl-2-((4aS,5aR)-5a-methyl-1,4,4a,5,5a,6-hexahydrocyclopropa[f]indazol-3-yl)-1H-benzo[d]imidazol-5-yl)-2-(2-oxopyrrolidin-1-yl)butanamide] |
